According to patent US20260234144A1 (TAY THERAPEUTICS LIMITED, priority 2023, published 2026):

Test system: R223X stop codon in the mutated luciferase gene, ADXC8 luciferase reporter cell line
Assay: cells
Type: cell-based
Details: for Emax / EC (100% of 200 uM G418 response): 24 h; for Emax: read-out: Fold Over Control, maximum fold response relative to 200 μM G418; for Emax / EC (100% of 200 uM G418 response) / Fold Over Control / pC100%: ADXC8 cells, 24 hours; for EC (100% of 200 uM G418 response): read-out: pC100%, negative logarithm of the concentration giving the same response as 200 μM G418; for Fold Over Control: maximum fold response relative to 200 μM G418; for pC100%: negative logarithm of the concentration giving the same response as 200 μM G418

SMILES	Emax	EC (100% of 200 uM G418 response)	Fold Over Control	pC100%	pC100% response (assayed at a concentration of 300 μM, C100% = concentration giving the same response as 200 μM G418)
CNc1nc(N[C@@H]2CCN(C)C2)nc2nc(C)cc(OC)c12 [Example 631]	100 to 3000%	1 to 10 µM	–	–	–
CNc1nc(N[C@@H]2CCN(C)C2)nc2nc(OC)cc(C)c12 [Example 616]	100 to 3000%	1 to 10 µM	–	–	–
Cc1c(Cl)c(-c2ccccc2)nc2nc(NCCCN3CCOCC3)nc(N)c12 [Example 128, 6-chloro-5-methyl-N2-(3-morpholinopropyl)-7-phenylpyrido[2,3-d]pyrimidine-2,4-diamine]	–	1 to 10 µM	–	–	–
CN1CCC(Nc2nc(N)c3ccc(-c4ccccc4F)nc3n2)CC1 [Example 88]	–	1 to 10 µM	–	–	–
Cc1cc(C)c2c(N)nc(NC3(CO)CCNCC3)nc2n1 [Example 207]	0 to 100%	> 31.6 µM	–	–	–
Cc1cc(C)c2c(N)nc(N[C@H]3CN(C)C[C@@H]3O)nc2n1 [Example 226, (3S,4S)-4-((4-amino-5,7-dimethylpyrido[2,3-d]pyrimidin-2-yl)amino)-1-methylpyrrolidin-3-ol]	100 to 3000%	0.1 to 1 µM	–	–	–
Cc1nc2nc(NC3CCN(C)CC3)nc(N)c2c2c1CCC2 [Example 11, 6-methyl-N^3-(1-methylpiperidin-4-yl)-8,9-dihydro-7H-cyclopenta[4,5]pyrido[2,3-d]pyrimidine-1,3-diamine]	100 to 3000%	0.1 to 1 µM	–	–	–
Cc1nc2nc(NC3CCN(Cc4ccccc4O)CC3)nc(N)c2c2c1CCC2 [Example 537]	100 to 3000%	0.1 to 1 µM	–	–	–
[2H]C([2H])([2H])Nc1nc(N[C@H]2CN(C)C[C@@H]2O)nc2nc3c(c(C)c12)CCC3 [Example 509, (3S,4S)-1-(methyl-d3)-4-((5-methyl-4-((methyl-da)amino)-7,8-dihydro-6H-cyclopenta[5,6]pyrido[2,3-d]pyrimidin-2-yl)amino)pyrrolidin-3-ol]	–	0.01 to 0.1 µM	–	–	–
Cc1cc(C)c2c(N)nc(NCCCN3Cc4ccccc4C3)nc2n1 [Example 194]	100 to 3000%	10 to 100 µM	–	–	–
Cc1cc(C)c2c(N)nc(NC3CCN(Cc4ccccc4C)CC3)nc2n1 [Example 550]	100 to 3000%	1 to 10 µM	–	–	–
CN1CCC(Nc2nc(N)c3ccc(CO)nc3n2)CC1 [Example 299]	0 to 100%	> 100 µM	–	–	–
Cc1cc(C)c2c(N)nc(NCCN3CC4(COC4)C3)nc2n1 [Example 30, N^2-(2-(2-oxa-6-azaspiro[3.3]heptan-6-yl)ethyl)-5,7-dimethylpyrido[2,3-d]pyrimidine-2,4-diamine]	100 to 3000%	10 to 100 µM	–	–	–
CN1CCC(Nc2nc(N)c3cc4c(nc3n2)CCC4)CC1 [Example 275]	–	1 to 10 µM	–	–	–
Cc1cc(C)c2c(N)nc(N[C@H]3CN4CCC3CC4)nc2n1 [Example 198]	0 to 100%	> 31.6 µM	–	–	–
COCc1ccc2c(N)nc(NC3CCN(C)CC3)nc2n1 [Example 237, 7-(methoxymethyl)-N^2-(1-methylpiperidin-4-yl)pyrido[2,3-d]pyrimidine-2,4-diamine]	100 to 3000%	10 to 100 µM	–	–	–
Cc1cc(C)c2c(N)nc(NC3CCN(Cc4ccno4)CC3)nc2n1 [Example 501]	100 to 3000%	10 to 100 µM	–	–	–
CN1CCC(Nc2nc(N)c3ccc(-c4ccn(C)n4)nc3n2)CC1 [Example 79]	0 to 100%	> 100 µM	–	–	–
Cc1cc(C)c2c(N)nc(NC3CCN(Cc4c(Cl)cccc4Cl)CC3)nc2n1 [Example 470]	100 to 3000%	1 to 10 µM	–	–	–

SMILES	Emax	EC (100% of 200 uM G418 response)	Fold Over Control	pC100%	pC100% response (assayed at a concentration of 300 μM, C100% = concentration giving the same response as 200 μM G418)
CNc1nc(NCCCN2CCOCC2)nc2nc3c(c(C)c12)CCC3 [Example 296]	–	0.1 to 1 µM	–	–	–
Cc1nc2nc(NC3CCN(Cc4ccccc4)CC3)nc(N)c2c2c1CCC2 [Example 306]	100 to 3000%	0.1 to 1 µM	–	–	–
CN1CCC(Nc2nc(N)c3ccc(-c4cnccn4)nc3n2)CC1 [Example 117]	0 to 100%	> 100 µM	–	–	–
CNc1nc(NC2C3CNC2C3)nc2nc(C)cc(C)c12 (single isomer, unassigned) [Example 445]	–	–	## (Fold over Ctrl > 1 ≤ 30)	++ (pC100% > 5.0 ≤ 6.0)	–
COCc1ccnc2nc(NC3CCN(C)CC3)nc(N)c12 [Example 248, 5-(methoxymethyl)-N^2-(1-methylpiperidin-4-yl)pyrido[2,3-d]pyrimidine-2,4-diamine]	0 to 100%	> 100 µM	–	–	–
Cc1cc(C)c2c(N)nc(NC3CCN(Cc4cc(C(F)(F)F)ccc4O)CC3)nc2n1 [Example 541]	0 to 100%	> 31.6 µM	–	–	–
COCc1cccc(-c2ccc3c(N)nc(NC4CCN(C)CC4)nc3n2)c1 [Example 81]	–	1 to 10 µM	–	–	–
CNc1nc(NC2CNCC2(F)F)nc2nc(C)cc(C)c12 (single isomer, unassigned) [Example 437]	–	–	## (Fold over Ctrl > 1 ≤ 30)	+ (pC100% > 4.0 ≤ 5.0)	–
CNc1c(C)c(NC2CCN(C)CC2)nc2nc(C)cc(C)c12 [Example 257, N^4,3,5,7-tetramethyl-N^2-(1-methylpiperidin-4-yl)-1,8-naphthyridine-2,4-diamine]	0 to 100%	> 31.6 µM	–	–	–
Cc1cc(C)c2c(N)nc(NC[C@@H]3CNCCO3)nc2n1 [Example 176]	100 to 3000%	1 to 10 µM	–	–	–
Nc1nc(N)c2nc(-c3ccccc3)c(N)nc2n1 [triamterene, reference compound]	0 to 100%	> 100 µM	–	–	not reached
Cc1cc(C)c2c(N)nc(N[C@@H]3CN[C@H](C)C3)nc2n1 [Example 348]	100 to 3000%	10 to 100 µM	–	–	–
CN1CCC(Nc2nc(N)c3ccc(-c4cccc(O)c4)nc3n2)CC1 [Example 104]	–	10 to 100 µM	–	–	–
CN1CCC(Nc2nc(N)c3ccc(-c4ccccc4C(=O)N(C)C)nc3n2)CC1 [Example 75]	0 to 100%	> 100 µM	–	–	–
CNc1nc(N[C@H]2CNC[C@H]2CO)nc2nc(C)cc(C)c12 [Example 418]	–	1 to 10 µM	–	–	–
CCN1C[C@@H](F)[C@@H](Nc2nc(NC)c3c(C)cc(C)nc3n2)C1 [Example 628]	–	1 to 10 µM	–	–	–
CNc1nc(N[C@H]2CNCC23CC3)nc2nc(C)cc(C)c12 [Example 403]	–	1 to 10 µM	–	–	–
Cc1cc(C)c2c(N)nc(NC3CCCCN(C(=O)OC(C)(C)C)C3)nc2n1 (stereo not drawn) [Example 135]	0 to 100%	> 100 µM	–	–	–
Cc1cc(C)c2c(N)nc(NC3CC4CC[C@@H](C3)N4C(=O)OC(C)(C)C)nc2n1 (stereo partly drawn) [Example 137]	100 to 3000%	10 to 100 µM	–	–	–

SMILES	Emax	EC (100% of 200 uM G418 response)	Fold Over Control	pC100%	pC100% response (assayed at a concentration of 300 μM, C100% = concentration giving the same response as 200 μM G418)
Cc1cc(C)c2c(N)nc(NCCN3CC4(CCOC4)C3)nc2n1 [Example 183]	0 to 100%	> 31.6 µM	–	–	–
Cc1cc(C)c2c(N)nc(NCCCN(C)c3ccccc3)nc2n1 [Example 147]	0 to 100%	> 31.6 µM	–	–	–
CNc1nc(NC2C3CNC2C3)nc2nc(C)cc(C)c12 (single isomer, unassigned) [Example 448]	–	–	# (Fold over Ctrl ≥ 0 ≤ 1)	* (pC100 ≤ 4.5)	–
CN1CCC(Nc2nc(N)c3ccc(-c4cnn(C)c4)nc3n2)CC1 [Example 26, 7-(1-methyl-1H-pyrazol-4-yl)-N^2-(1-methylpiperidin-4-yl)pyrido[2,3-d]pyrimidine-2,4-diamine]	0 to 100%	> 100 µM	–	–	–
CNc1nc(N[C@H]2CN[C@H](C)C2)nc2nc(C)cc(C)c12 [Example 376]	–	0.1 to 1 µM	–	–	–
CNc1nc(NC2CNCC2C#N)nc2nc(C)cc(C)c12 (single isomer, unassigned) [Example 453]	–	–	## (Fold over Ctrl > 1 ≤ 30)	+ (pC100% > 4.0 ≤ 5.0)	–
CN1CCC(Nc2nc(N)c3ccc(C(F)(F)F)nc3n2)CC1 [Example 18, N^2-(1-methylpiperidin-4-yl)-7-(trifluoromethyl)pyrido[2,3-d]pyrimidine-2,4-diamine]	100 to 3000%	10 to 100 µM	–	–	–
Cc1c2c(nc3nc(NC4CCN(Cc5cnccc5O)CC4)nc(N)c13)CCC2 [Example 663]	100 to 3000%	1 to 10 µM	–	–	–
Cc1cc(C)c2c(N)nc(NC3C[C@H]4CCC[C@@H](C3)N4C)nc2n1 (stereo partly drawn) [Example 211]	100 to 3000%	1 to 10 µM	–	–	–
Cc1cc(C)c2c(N)nc(NCC(C)(C)N3CCOCC3)nc2n1 [Example 148]	100 to 3000%	10 to 100 µM	–	–	–
Cc1c2c(nc3nc(N[C@H]4CNC[C@@H]4O)nc(N(C)C)c13)CCC2 [Example 553]	100 to 3000%	10 to 100 µM	–	–	–
CNc1ccnc2nc(NC3CCN(C)CC3)nc(N)c12 [Example 247]	0 to 100%	> 100 µM	–	–	–
CNc1nc(NC2CC3CC2CN3C)nc2nc(C)cc(C)c12 (single isomer, unassigned) [Example 431]	100 to 3000%	–	–	+ (pC100% > 4.0 ≤ 5.0)	–
Cc1cc(C)c2c(N)nc(NC3CCN(Cc4cncs4)CC3)nc2n1 [Example 459]	100 to 3000%	1 to 10 µM	–	–	–
CNc1nc(NC2CCCN3CCCC23)nc2nc(C)cc(C)c12 (stereo not drawn) [Example 597]	–	–	–	++ (pC100% > 5.0 ≤ 6.0)	–
Cc1cc(C)c2c(NCCO)nc(NC3CCN(C)CC3)nc2n1 [Example 273]	–	1 to 10 µM	–	–	–
CN1CCC(Nc2nc(N)c3ccc(-c4ccc(CO)cc4)nc3n2)CC1 [Example 94]	100 to 3000%	10 to 100 µM	–	–	–
CNc1nc(NC2CCN(Cc3ccccc3O)CC2)nc2nc(C)c3c(c12)CCC3 [Example 544]	100 to 3000%	0.1 to 1 µM	–	–	–
CNc1nc(NC2CN3CCC2C3)nc2nc(C)cc(C)c12 (stereo not drawn) [Example 449]	0 to 100%	> 31.6 µM	–	–	–
